In experiment [1] the target is bestatin-sensitive/amastatin-insensitive membrane dipeptidase. The experiment in a line: Specificity of apstatin: bestatin-sensitive/amastatin-insensitive membrane dipeptidase. The format is biochemical. To be noted: bovine lung microsomes; Arg-Trp, pH 6.8, FLUO. How it is done:
Specificity of Apstatin--Apstatin was assayed for its ability to inhibit several other peptidases. […] Unless otherwise indicated, the source of each enzyme activity was a detergent extract of bovine lung prepared as described in (12-13). Activities were determined by a modification of the fluorescent assay described above (indicated by "FLUO") or by HPLC separation and quantitation of reaction products using the method described in (12) (method "HPLC-1") or the method described below (method "HPLC-2"). […]

For experiment [2], the target named is T1, purified rat lung membrane-bound aminopeptidase P (Rattus norvegicus, UniProt Q99MA2).
T1 construct: from tissue; host or cells: rat lung
T1 sequence (Q99MA2 23-674): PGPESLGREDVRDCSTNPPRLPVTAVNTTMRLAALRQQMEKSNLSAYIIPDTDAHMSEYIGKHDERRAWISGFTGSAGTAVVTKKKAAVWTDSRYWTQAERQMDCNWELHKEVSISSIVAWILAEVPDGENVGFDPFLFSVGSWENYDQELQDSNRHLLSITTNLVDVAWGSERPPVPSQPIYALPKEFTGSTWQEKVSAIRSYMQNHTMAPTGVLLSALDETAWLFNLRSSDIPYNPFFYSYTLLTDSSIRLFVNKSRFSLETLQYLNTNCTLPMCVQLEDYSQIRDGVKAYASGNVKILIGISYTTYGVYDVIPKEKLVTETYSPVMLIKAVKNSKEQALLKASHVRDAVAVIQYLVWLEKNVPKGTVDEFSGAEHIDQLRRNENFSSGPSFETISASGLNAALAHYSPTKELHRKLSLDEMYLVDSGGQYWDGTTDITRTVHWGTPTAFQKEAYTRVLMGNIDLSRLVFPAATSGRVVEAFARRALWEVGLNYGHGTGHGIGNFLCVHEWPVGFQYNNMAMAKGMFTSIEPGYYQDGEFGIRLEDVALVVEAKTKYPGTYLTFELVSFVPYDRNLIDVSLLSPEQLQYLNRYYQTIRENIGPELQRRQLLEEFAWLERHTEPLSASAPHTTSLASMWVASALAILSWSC
Description: Aminopeptidase P inhibition, release of arginine from Arg-Pro-Pro (fluorescent assay). It counts as biochemical. As to the method: The IC50 of the compound of the present invention in relation to aminopeptidase P was also determined. […] The specificity of the compound of the present invention for other aminopeptidases was similarly determined as described in the Experimental Procedures herein.
Enzymes--Membrane-bound aminopeptidase P was purified to homogeneity from bovine lung (14) and from rat lung. Partially purified membrane-bound aminopeptidase P from human lung was obtained by treatment of lung microsomes with phosphatidylinositol-specific phospholipase C (B. thuringiensis) (ICN, Costa Mesa, Calif.) followed by centrifugation as described previously (14). Membrane dipeptidase was purified from rat lung microsomes (manuscript in preparation). Recombinant E. coli aminopeptidase P (22) and purified lamb kidney prolyl oligopeptidase (23) were generally supplied by Dr. Tadashi Yoshimoto (Nagasaki University). Purified porcine kidney prolidase and purified porcine kidney aminopeptidase M was obtained from Sigma (St. Louis, Mo.).
Enzyme Kinetics--Aminopeptidase P activity was determined by measuring the release of arginine from Arg-Pro-Pro by a fluorescent assay described previously (14). […] Each mixture was run in duplicate. Aliquots were removed from each incubation mixture at various times and assayed for the amount of arginine present to determine the reaction velocity. In general, reaction velocities were calculated from data representing less than 20% cleavage of substrate. Ki and Ki ' (=αKi) were determined from plots of 1/v versus concentration of inhibitor "i" (26) and S/v versus concentration of inhibitor "i" (27), respectively. These parameters were also determined from the slope replot and 1/v-intercept replot, respectively, of the 1/v versus 1/S plot (28). […] The values from the two treatments of the data were averaged for each experiment. Experiments for each enzyme preparation were performed twice and the results averaged.

Where only a bound is given, the exact number is not on record here.

A word on the IC50: it is the midpoint of a concentration-inhibition curve. A higher IC50 goes with lower potency. What is called Ki is the equilibrium dissociation constant of an inhibitor or competing ligand from its target. Low values mean tighter binding, high ones weaker binding. Regarding `C[C@H](NC(=O)[C@@H]1CCCN1C(=O)[C@@H]1CCCN1C(=O)[C@@H](O)[C@H](N)Cc1ccccc1)C(N)=O` [apstatin, N-[(2S, 3R)-3-amino-2-hydroxy-4-phenylbutanoyl]-L-prolyl-L-prolyl-Lalaninamide], the IC50 in experiment [1] is more than 800 µM. Also, in experiment [2], the “dependence of inhibition on Mn+2” value is on record as “not dependent on the presence of Mn^+2”. The reversibility of inhibition result in experiment [2] (100-fold dilution of a preincubated enzyme-apstatin mixture) is “indicating reversibility”. For the same compound, the “effect of preincubation on degree of inhibition (time-dependent or slow-tight binding inhibition)” value in experiment [2] (preincubation of rat aminopeptidase P for up to 2 hr. at 4° C. before addition of substrate) is reported as “did not increase the degree of inhibition”. For the same compound, in experiment [2] (rat lung aminopeptidase P), the type of inhibition result is reported as “linear mixed-type”. Further, the “α (αKi = equilibrium constant for enzyme-inhibitor binding at infinite substrate concentration)” value in experiment [2] (rat lung, purified membrane-bound form) is reported as 5.1. In experiment [2] (rat lung, purified membrane-bound form, substrate Arg-Pro-Pro, 0.1 M Hepes pH 8.0, 39° C.), this compound showed a Ki of 2.6 µM.
